# According to US20250197391A1, “METHODS OF SYNTHESIZING EGFR INHIBITORS” (Scorpion Therapeutics, Inc., priority 2022, published 2025):
# Where “and” joins values, the source holds several entries; their conditions need not be identical. Identical values can stand only once.
# How the values were obtained:
# [1] = Stability of process solutions / solid on drying over days (HPLC area %); format: physicochemical
# [2] = Solubility data in solvents; format: physicochemical; conditions: for solubility: organic solvent or mixture
smiles,measurement,setting,value
"COc1c(Cl)cccc1N=C=S [Compound 1, 1-chloro-3-isothiocyanato-2-methoxybenzene]",Area % after hold,"[1]; IPAC solution, 40 ± 5 C., 1 d",96.0 A %
same,Area % after hold,"[1]; IPAC solution, 40 ± 5 C., 2 d",95.9 A %
same,Area % after hold,"[1]; IPAC solution, 40 ± 5 C., 3 d",94.3 A %
same,Area % after hold,"[1]; IPAC solution, 50 ± 5 C., 1 d",95.5 A %
same,Area % after hold,"[1]; IPAC solution, 50 ± 5 C., 2 d",94.7 A %
same,Area % after hold,"[1]; IPAC solution, 50 ± 5 C., 3 d",90.5 A %
"COc1c(Cl)cccc1NC(=S)C1=C(O)CCN(C(=O)OC(C)(C)C)C1=O [Compound 2, tert-butyl 5-((3-chloro-2-methoxyphenyl)carbamothioyl)-4-hydroxy-6-oxo-3,6-dihydropyridine-1(2H)-carboxylate]",solubility,[2]; solvent ACN,33 mg/mL
same,solubility,[2]; solvent DCM,> 200 mg/mL
same,solubility,[2]; solvent EtOAc,100 mg/mL
same,solubility,[2]; solvent EtOH,< 5 mg/mL
same,solubility,[2]; solvent MTBE,28 mg/mL
same,solubility,[2]; solvent MeOH,5 mg/mL
same,solubility,[2]; solvent n-heptane,< 5 mg/mL
same,Area % after hold,"[1]; IPAC solution pH = 5-6, 20 ± 5 C., 0 d",90.1 A %
same,Area % after hold,"[1]; IPAC solution pH = 5-6, 20 ± 5 C., 1 d",89.8 A %
same,Area % after hold,"[1]; IPAC solution pH = 5-6, 20 ± 5 C., 3 d",90.9 A %
same,Area % after hold,"[1]; IPAC solution, 25 ± 5 C., 0 d",87.3%
same,Area % after hold,"[1]; IPAC solution, 25 ± 5 C., 1 d, listed as Comp. 2",88.7% and 86.0%
same,Area % after hold,"[1]; IPAC solution, 25 ± 5 C., 2 d, listed as Comp. 2",86.5% and 85.6%
same,Area % after hold,"[1]; IPAC solution, 25 ± 5 C., 3 d, listed as Comp. 2",85.2% and 83.5%
same,Area % after hold,"[1]; IPAC solution, 40 ± 5 C., 0 d",90.1 A %
same,Area % after hold,"[1]; IPAC solution, 40 ± 5 C., 1 d, listed as Comp. 2",88.6 A % and 87.7 A %
same,Area % after hold,"[1]; IPAC solution, 40 ± 5 C., 3 d, listed as Comp. 2",84.7 A % and 80.0%
same,Area % after hold,"[1]; on drying, 45 ± 5 C., 0 d",99.7 A %
same,Area % after hold,"[1]; on drying, 45 ± 5 C., 3 d",99.8%
"COc1c(Cl)cccc1Nc1c(-c2ccncc2Br)[nH]c2c1C(=O)N(C(=O)OC(C)(C)C)CC2 [Compound 101, tert-butyl 2-(3-bromopyridin-4-yl)-3-((3-chloro-2-methoxyphenyl)amino)-4-oxo-1,4,6,7-tetrahydro-5H-pyrrolo[3,2-c]pyridine-5-carboxylate]",solubility,[2]; solvent ACN,33 mg/mL
same,solubility,[2]; solvent DCM,> 125 mg/mL
same,solubility,[2]; solvent EtOAc,6.25 mg/mL
same,solubility,[2]; solvent EtOH,6.25 mg/mL
same,solubility,[2]; solvent MTBE,6.25 mg/mL
same,solubility,[2]; solvent MeOH,7.1 mg/mL
same,solubility,[2]; solvent n-heptane,< 5 mg/mL
same,solubility,[2]; solvent toluene,< 5 mg/mL
"COc1c(Cl)cccc1Nc1c(-c2ccncc2Br)[nH]c2c1C(=O)NCC2 [Compound 102, 2-(3-bromopyridin-4-yl)-3-((3-chloro-2-methoxyphenyl)amino)-1,5,6,7-tetrahydro-4H-pyrrolo[3,2-c]pyridin-4-one]",Dissolution in crystallization solvents,"[2]; 5 V of DCM, MeCN, MTBE, THF, MeOH, EtOAc or toluene at reflux",has not been dissolved in all these solvents at reflux except for THE
same,solubility,[2]; solvent 2-MeTHF,5 mg/mL
same,solubility,[2]; solvent DMAC,> 200 mg/mL
same,solubility,[2]; solvent DMF,> 100 mg/mL
same,solubility,[2]; solvent DMSO,> 100 mg/mL
same,solubility,[2]; solvent HFIP,94 mg/mL
same,solubility,[2]; solvent MeCN,2 mg/mL
same,solubility,[2]; solvent NMP,> 100 mg/mL
same,solubility,[2]; solvent TFE,79 mg/mL
same,solubility,[2]; solvent THE,31 mg/mL
